Test results from US20220305003A1, “METHODS OF TREATING CANCER WITH AN INHIBITOR OF ZNF827” (CHILDREN'S MEDICAL RESEARCH INSTITUTE, priority 2019, published 2022).

Key:
Assay type in all cases: cell-based
ATR-CHK1 pathway [1] = experiment: Western blot of pCHK1, pRPA32 and p21 after ZNF827 knockdown, topotecan and/or ATR inhibitor
Experimental: (§1) Protein was extracted from 10^6 cells per sample by vigorous pipetting and incubation at room temperature for 30 minutes in 100 μL of EDTA-free 4× LDS buffer (106 mM Tris-Cl, 141 mM Tris-Base, 40% Glycerol, 2% LDS, 0.075% SERVA Blue G50) supplemented with 2.5% Benzonase® nuclease 25 U/μL (Novagen, Merck Millipore) and 2% beta-mercaptoethanol (Sigma). Following protein extraction, all samples were denatured at 90° C. for 15 minutes before resolving on NuPAGE® Novex® 4-12% Bis-Tris Mini Gels (Invitrogen) with 1×10^5 cells (10 μL) loaded per lane in NuPAGE® MES SDS running buffer (Invitrogen) at 200 V for 50 minutes. Gels were transferred onto a PVDF membrane (Immobilon-P, Millipore) in transfer buffer (190 mM glycine, 25 mM Tris and 10% methanol) at 100 V for 60 minutes. Membranes were stained with Ponceau-S for 30 minutes, de-stained then blocked for 1 hour at room temperature in 5% skim milk dissolved in PBS with 0.1% Tween-20 (PBST) or TBS with 0.1% Tween-20 (TBST) for phosphorylated proteins. Membranes were cut into appropriate segments based on the size markers, with each segment incubated with antibodies for proteins of interest diluted in 0.5% skim milk in PBST/TBST or 5% BSA overnight at 4° C. (Refer to Table 4 for the list of antibodies). Blots were then washed for 3×5 minutes in PBST/TBST followed by incubation for 1 hour at room temperature with appropriate secondary antibodies (See Table 5) diluted 1:5000 in 0.5% skim milk or 5% BSA in PBST/TBST. Blots were washed for 3×5 minutes in PBST/TBST before incubation with SuperSignal West Pico Chemiluminescent Substrate (ThermoFisher Scientific) for 5 minutes at room temperature. Blots were then exposed to a Luminescent Image Analyser (LAS-4000, Fujifilm).

ATR-CHK1 pathway [2] = experiment: Western blot of ATR downstream effectors (p-CHK1 S345, p-RPA2 S33, pCHK2); conditions: U-2 OS
Experimental: as §1
To investigate the precise function of ZNF827 in the ATR pathway, the effect of ZNF827 depletion on the downstream effectors of ATR was examined. To activate ATR, U-2 OS cells were treated with DNA damage and replication stress inducing agents topotecan 2 μg/mL for 24 hours or aphidicolin 1 μM for 20 hours. […] Phosphorylation of CHK2 was not affected by ZNF827 depletion, further supporting that the role of ZNF827 in DNA damage and repair is independent of ATM (FIG. 6d).

U-2 OS cells = experiment: Topotecan dose-response of cell proliferation after siRNA transfection (IncuCyte); conditions: topotecan 0.0039-1 μg/mL, 180 hours, compared to scrambled control
Experimental: U-2 OS cells were plated in a 96-well plate at 4000 cells per well. 24 hours following plating, cells were transfected with either scrambled or ZNF827 siRNAs (Table 2) using Lipofectamine RNAiMAX transfection reagent (ThermoFisher Scientific). 24 hours post siRNA transfection, cells were treated with topotecan at a range of concentrations including 0.0039, 0.0078, 0.0156, 0.03125, 0.0625, 0.125, 0.25, 0.5 and 1 μg/mL in triplicates. DMSO was used as untreated control. Immediately after treatment addition, cells were imaged using the IncuCyte® live cell imaging system at 2-hour intervals for 180 hours. Cell proliferation was measured by phase object confluence calculated by the IncuCyte® analysis software. For IC50s, cell proliferation data were analysed in GraphPad Prism 8 to obtain area under curve (AUC), followed by normalisation and non-linear regression using the log(inhibitor) vs. normalised response -variable slope' function.

HT1080 cells = experiment: Sister chromatid exchange (SCE) assay in HT1080; conditions: 72 hr siRNA knockdown of ZNF827, topotecan 2 μg/mL 1 hr
Experimental: For the SCE assay, 20-25% confluent cells were cultured in fresh media supplemented with 7.5 μM […] (BrdU) and 2.5 μM BrdC (BrdU:BrdC 3:1 ratio; Sigma-Aldrich) for 32-48 hours depending on the mitotic index of the cell line. Cell cultures were treated with 100 ng/mL colcemid for the last 4 hours of incubation to accumulate mitotic cells. Cells were harvested by trypsinisation and centrifugation, and then incubated in hypotonic buffer for 10 minutes at 37° C. Swollen cells were fixed by gradually adding 1 mL of fresh ice-cold fixative (methanol/acetic acid 3:1), mixing by inversion and incubating on ice for 5 minutes. Cells were then collected by centrifugation at 1200 rpm for 8 minutes. 10 mL ice cold fixative was added to resuspend the cells followed by 5 minutes incubation on ice and centrifugation at 1200 rpm for 8 minutes. This fixing step was repeated another two times. Fixed cells were then resuspended in 500-1000 μL of ice-cold fixative, and dropped onto clean, dry microscope slides (HDS Surefrost, 50-100 μL cell solution per slide). To drop chromosomes, a clean dry slide was held over a 75° C. water bath, and the cell solution was dropped from a pipette onto the slide, which was quickly flipped and held close to the surface of the water bath for 5 seconds. […]

[3] = agent alone (topotecan 2 μg/mL 24 hours, aphidicolin 1 μM 20 hours, or siRNA knockdown in unchallenged cells)

siZNF827: Stealth RNAi siRNA ZNF827HSS135819 duplex oligoribonucleotides (Invitrogen), SEQ ID NO: 12 and 13 (chain 1 GGGCAGUCUUCUGGCUGAGAAAUCA; chain 2 UGAUUUCUCAGCCAGAAGACUGCCC; listed as RNA, further chemistry not given here)
phosphorylation of CHK1 S345 and RPA32 S33 compared with ATR inhibitors (ATR-CHK1 pathway [1]; ZNF827 knockdown versus ATR inhibitors VE-821 and AZ20): greater reduction in phosphorylation of CHK1 S345 and RPA32 S33 than ATR inhibitors | phosphorylation of CHK1 S345 and RPA S33 (ATR-CHK1 pathway [1]; ZNF827 knockdown, topotecan treatment): substantially suppressed | p21 level (ATR-CHK1 pathway [1]; unchallenged ZNF827-depleted cells, compared with topotecan-treated cells): upregulated | phosphorylation of CHK1 S345 (ATR-CHK1 pathway [2]; 72 hr siRNA knockdown in topotecan- or aphidicolin-treated cells): markedly suppressed | phosphorylation of RPA S33 (ATR-CHK1 pathway [2]; 72 hr siRNA knockdown in topotecan-treated cells): markedly suppressed | phosphorylation of CHK2 (ATR-CHK1 pathway [2]; 72 hr siRNA knockdown, topotecan 2 μg/mL 24 hr or DMSO): not affected | phosphorylation of CHK1 S345 (ATR-CHK1 pathway [2]; [3]): reduced baseline phosphorylation of CHK1 S345 | sensitivity to topotecan treatment (cell proliferation dose-response) (U-2 OS cells): markedly increased sensitivity to topotecan treatment | sister chromatid exchanges (SCEs) (HT1080 cells): suppression of SCEs

CC[C@@]1(O)C(=O)OCc2c1cc1n(c2=O)Cc2cc3c(CN(C)C)c(O)ccc3nc2-1 [topotecan]
phosphorylation of CHK1 S345 (ATR-CHK1 pathway [2]; [3]): became phosphorylated at S345 | phosphorylation of RPA S33 (ATR-CHK1 pathway [2]; topotecan 2 μg/mL 24 hours): phosphorylated at S33
